Measured values from ChEMBL document CHEMBL1201862, “PubChem BioAssay data set” (2004).
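Interpolation was linear, between the two tested concentrations surrounding the appropriate level; five concentrations were tested over 48 hours in 96-well plates. GI50 = concentration required for 50% inhibition of growth.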 Calls of active or inactive are those of the source. Rule as the data show it: active = GI50 up to about 1.1 µM and inactive = higher.

How the values were obtained:
Assay in all cases: DTP human tumour cell line panel, 48 h
CCRF-CEM = system: CCRF-CEM
COLO 205 = system: COLO 205
HCT-116 = system: HCT-116
HOP-92 = system: HOP-92
NCI-H226 = system: NCI-H226
OVCAR-4 = system: OVCAR-4
OVCAR-8 = system: OVCAR-8
SF-295 = system: SF-295
SF-539 = system: SF-539
SK-MEL-28 = system: SK-MEL-28
SK-MEL-2 = system: SK-MEL-2
SK-MEL-5 = system: SK-MEL-5
SK-OV-3 = system: SK-OV-3
SN12C = system: SN12C
SNB-75 = system: SNB-75
SR = system: SR
SW-620 = system: SW-620
NCI/ADR-RES = system: NCI/ADR-RES
T47D = system: T47D
DU-145 = system: DU-145

| SMILES | GI50 (CCRF-CEM) | GI50 (COLO 205) | GI50 (HCT-116) | GI50 (HOP-92) | GI50 (NCI-H226) | GI50 (OVCAR-4) | GI50 (OVCAR-8) | GI50 (SF-295) | GI50 (SF-539) | GI50 (SK-MEL-28) | GI50 (SK-MEL-2) | GI50 (SK-MEL-5) | GI50 (SK-OV-3) | GI50 (SN12C) | GI50 (SNB-75) | GI50 (SR) | GI50 (SW-620) | GI50 (NCI/ADR-RES) | GI50 (T47D) | GI50 (DU-145) |
| --- | --- | --- | --- | --- | --- | --- | --- | --- | --- | --- | --- | --- | --- | --- | --- | --- | --- | --- | --- | --- |
| CC(N)C(=O)OCN1C(=O)C2C3C=CC(C2C1=O)C1C2C(=O)N(COC(=O)C(C)N)C(=O)C2C31 (stereo not given) | 23.1 µM (inactive) | 19.4 µM (inactive) | 24.2 µM (inactive) | 57.5 µM (inactive) | 39.8 µM (inactive) | 20.8 µM (inactive) | 22.1 µM (inactive) | > 100 µM (inactive) | 22.9 µM (inactive) | 21.9 µM (inactive) | 20.6 µM (inactive) | 18.1 µM (inactive) | 53.1 µM (inactive) | 25.6 µM (inactive) | 25.6 µM (inactive) | 5.57 µM (inactive) | 24.4 µM (inactive) | – | – | – |
| CCOC(=O)NN(C(=O)OCC)c1ccc(/N=N/c2ccc(OC)cc2)n1C | – | 21.7 µM (inactive) | 18.6 µM (inactive) | 24.8 µM (inactive) | 26.2 µM (inactive) | 36.9 µM (inactive) | 35.5 µM (inactive) | 37.4 µM (inactive) | 18.4 µM (inactive) | – | 10.8 µM (inactive) | 17.5 µM (inactive) | 30.7 µM (inactive) | 37.1 µM (inactive) | 10.3 µM (inactive) | – | – | 25.9 µM (inactive) | 21 µM (inactive) | – |
| Cc1cc2c(=O)cc(-c3ccc(C(=O)O)cc3)oc2c(C(=O)O)c1C | > 100 µM (inactive) | > 100 µM (inactive) | > 100 µM (inactive) | > 100 µM (inactive) | > 100 µM (inactive) | > 100 µM (inactive) | > 100 µM (inactive) | > 100 µM (inactive) | > 100 µM (inactive) | > 100 µM (inactive) | > 100 µM (inactive) | > 100 µM (inactive) | > 100 µM (inactive) | > 100 µM (inactive) | > 100 µM (inactive) | > 100 µM (inactive) | > 100 µM (inactive) | – | – | – |
| O=C(O)Cc1ccc(-n2nnc3c(=O)[nH][nH]c(=O)c32)cc1 | > 100 µM (inactive) | > 100 µM (inactive) | > 100 µM (inactive) | > 100 µM (inactive) | – | > 100 µM (inactive) | > 100 µM (inactive) | > 100 µM (inactive) | – | > 100 µM (inactive) | > 100 µM (inactive) | > 100 µM (inactive) | – | > 100 µM (inactive) | – | > 100 µM (inactive) | – | > 100 µM (inactive) | – | > 100 µM (inactive) |
| Nc1nc(O)c2nc(CNc3ccc(C(=O)NC(CCC(=O)O)C(=O)O)cc3)cnc2n1 (stereo not given) | > 100 µM (inactive) | – | – | – | > 100 µM (inactive) | > 100 µM (inactive) | > 100 µM (inactive) | > 100 µM (inactive) | > 100 µM (inactive) | > 100 µM (inactive) | > 100 µM (inactive) | > 100 µM (inactive) | > 10 µM (inactive) | > 100 µM (inactive) | 0.9 µM (active) | > 100 µM (inactive) | > 100 µM (inactive) | > 100 µM (inactive) | – | – |
| OCCCCCCOc1ccc(-c2cc(-c3ccccn3)nc(-c3ccccn3)c2)cc1 | 0.026 µM (active) | 0.372 µM (active) | 0.132 µM (active) | 0.643 µM (active) | 0.104 µM (active) | 0.177 µM (active) | 0.136 µM (active) | 0.194 µM (active) | 0.143 µM (active) | 0.248 µM (active) | 0.233 µM (active) | 0.243 µM (active) | 0.211 µM (active) | 0.424 µM (active) | 0.637 µM (active) | 0.0286 µM (active) | 0.367 µM (active) | – | 0.148 µM (active) | 0.0716 µM (active) |
| C[C@]12CCC[C@H](O)[C@H]1C[C@H](CO)CC2 | > 100 µM (inactive) | > 100 µM (inactive) | > 100 µM (inactive) | > 100 µM (inactive) | > 100 µM (inactive) | > 100 µM (inactive) | > 100 µM (inactive) | > 100 µM (inactive) | > 100 µM (inactive) | > 100 µM (inactive) | > 100 µM (inactive) | – | > 100 µM (inactive) | > 100 µM (inactive) | > 100 µM (inactive) | > 100 µM (inactive) | > 100 µM (inactive) | – | – | – |
| COc1ccc(Br)c(N/N=C2\CCCNC2=O)c1 | > 100 µM (inactive) | 48 µM (inactive) | > 100 µM (inactive) | 48.9 µM (inactive) | > 100 µM (inactive) | > 100 µM (inactive) | > 100 µM (inactive) | > 100 µM (inactive) | 95.5 µM (inactive) | > 100 µM (inactive) | > 100 µM (inactive) | 96.6 µM (inactive) | 81.3 µM (inactive) | > 100 µM (inactive) | 23.1 µM (inactive) | 4.71 µM (inactive) | 71.1 µM (inactive) | – | – | – |
